# Assay results reported in patent US7196110B2, “N-substituted tricyclic 3-aminopyrazoles as inhibitors for the treatment of cell proliferative disorders” (Janssen Phamaceutica N.V., priority 2002, dated 2007).
# Experiments:
# [1] = molecular target: T1, PDGF-receptor beta enzyme comprising the tyrosine kinase domain (Homo sapiens, UniProt P09619); test: Inhibition of PDGF-receptor kinase activity (cell-free, PLC1 peptide, 33P Flashplate); type: biochemical; conditions: PDGF-R kinase activity; for inhibition at 10 µM: compound at 10 uM, read-out: Percent Inhibition @ 10 uM; for IC50: read-out: IC50
# T1 construct: from amino acid 545 to 1106 of GenBank Access NO: AAA36427
# Procedure, shortened: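 Recombinant kinase domain (aa 545–1106) phosphorylated a biotinylated PLC1 peptide with 5 μM ATP plus 33P-γ-ATP, in Tris pH 8, MgCl2, Na3VO4 and 1 mM DTT, for 60 min at 30 °C. Retained 33P was counted after washing. IC50 is the concentration halving activity versus no-inhibitor reactions.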
# c-Abl kinase = c-Abl kinase (Abelson murine leukemia virus, UniProt P00521); test: Inhibition of c-Abl kinase activity (cell-free, Abl peptide substrate, 33P Flashplate); type: biochemical; conditions: IC50 for the c-Abl kinase activity
# c-Abl kinase, sequence (P00521 115-385): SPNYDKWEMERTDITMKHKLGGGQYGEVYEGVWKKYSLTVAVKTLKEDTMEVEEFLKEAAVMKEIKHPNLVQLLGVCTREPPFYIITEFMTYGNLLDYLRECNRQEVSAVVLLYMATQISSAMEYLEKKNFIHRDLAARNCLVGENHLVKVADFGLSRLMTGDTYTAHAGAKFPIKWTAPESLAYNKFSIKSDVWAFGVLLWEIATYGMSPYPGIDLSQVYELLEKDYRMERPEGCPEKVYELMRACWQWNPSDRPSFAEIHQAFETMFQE
# T1 sequence (P09619 545-1106): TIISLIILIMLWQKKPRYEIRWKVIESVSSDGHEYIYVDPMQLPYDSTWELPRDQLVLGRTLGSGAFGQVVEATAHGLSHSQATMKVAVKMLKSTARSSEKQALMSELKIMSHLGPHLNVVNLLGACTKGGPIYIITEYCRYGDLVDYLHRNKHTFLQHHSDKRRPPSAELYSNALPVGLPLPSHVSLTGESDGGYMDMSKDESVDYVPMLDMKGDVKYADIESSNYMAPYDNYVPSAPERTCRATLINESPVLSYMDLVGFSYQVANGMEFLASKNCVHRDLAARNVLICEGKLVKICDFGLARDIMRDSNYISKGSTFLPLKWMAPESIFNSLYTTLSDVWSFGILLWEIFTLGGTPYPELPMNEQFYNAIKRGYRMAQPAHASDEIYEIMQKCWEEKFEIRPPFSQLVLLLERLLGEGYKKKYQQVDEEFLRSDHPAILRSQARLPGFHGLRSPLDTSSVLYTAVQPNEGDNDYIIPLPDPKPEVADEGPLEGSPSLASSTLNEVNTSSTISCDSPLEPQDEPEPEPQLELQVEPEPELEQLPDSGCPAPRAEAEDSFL
Structure (SMILES),inhibition at 10 µM [1] [%],IC50 [1] [nM],IC50 (c-Abl kinase) [nM]
"COc1cc2c(cc1OC)-c1c(c(Nc3cccc(F)c3)nn1C(=O)COC(C)=O)C2 [Compound 467, Acetic acid 2-[3-(3-fluoro-phenylamino)-6,7-dimethoxy-4H-indeno[1,2-c]pyrazol-1-yl]-2-oxo-ethyl ester]",96.5,17.6,244
"COc1cccc2c1Cc1c-2n[nH]c1Nc1cccc(F)c1 [Compound 422, (3-Fluoro-phenyl)-(5-methoxy-2,4-dihydro-indeno[1,2-c]pyrazol-3-yl)-amine]",83,29.7,3080
"CCOc1cccc(Nc2[nH]nc3c2Cc2cc(OCC)c(OCC(O)CN4CCCC4)cc2-3)c1 (stereo not drawn) [Compound 463, 1-[6-Ethoxy-3-(3-ethoxy-phenylamino)-2,4-dihydro-indeno[1,2-c]pyrazol-7-yloxy]-3-pyrrolidin-1-yl-propan-2-ol]",98.5,11,8
"Cc1ccc2c(c1)-c1n[nH]c(Nc3cccc(F)c3)c1C2 [Compound 182, (3-Fluoro-phenyl)-(7-methyl-2,4-dihydro-indeno[1,2-c]pyrazol-3-yl)-amine]",107,5,93
"COc1cc2c(cc1O)Cc1c-2n[nH]c1Nc1cccc(F)c1 [Compound 363, 3-(3-Fluoro-phenylamino)-7-methoxy-2,4-dihydro-indeno[1,2-c]pyrazol-6-ol]",76.5,5.47,1
"COc1cc2c(cc1OCCCn1ccnc1)Cc1c-2n[nH]c1Nc1ccc(F)c(Cl)c1 [Compound 227, (3-Chloro-4-fluoro-phenyl)-[6-(3-imidazol-1-yl-propoxy)-7-methoxy-2,4-dihydro-indeno[1,2-c]pyrazol-3-yl]-amine]",83.5,34.9,641
"CN(C)CCCOc1cccc2c1Cc1c-2n[nH]c1Nc1cccc(F)c1 [Compound 90, [5-(3-Dimethylamino-propoxy)-2,4-dihydro-indeno[1,2-c]pyrazol-3-yl]-(3-fluoro-phenyl)-amine]",97,8.7,10300
"COc1cc2c(cc1OCCCN1CCOCC1)Cc1c-2n[nH]c1Nc1cccc(F)c1 [Compound 134, (3-Fluoro-phenyl)-[7-methoxy-6-(3-morpholin-4-yl-propoxy)-2,4-dihydro-indeno[1,2-c]pyrazol-3-yl]-amine]",96,10.1,1160
"Nc1ccc2c(c1)Cc1c-2n[nH]c1Nc1cccc(Cl)c1 [Compound 119, N3-(3-Chloro-phenyl)-2,4-dihydro-indeno[1,2-c]pyrazole-3,6-diamine]",90,19.8,524
"CCOc1cc2c(cc1OCC)-c1n[nH]c(NCc3ccccc3Cl)c1C2 [Compound 292, (2-Chloro-benzyl)-(6,7-diethoxy-2,4-dihydro-indeno[1,2-c]pyrazol-3-yl)-amine]",86.5,18.2,1
"COc1cc2c(cc1OCCCN1CCOCC1)Cc1c-2n[nH]c1Nc1cccc(Cl)c1 [Compound 132, (3-Chloro-phenyl)-[7-methoxy-6-(3-morpholin-4-yl-propoxy)-2,4-dihydro-indeno[1,2-c]pyrazol-3-yl]-amine]",79,5.37,665
"Clc1ccc2c(c1)Cc1c-2n[nH]c1Nc1cccnc1 [Compound 188, (6-Chloro-2,4-dihydro-indeno[1,2-c]pyrazol-3-yl)-pyridin-3-yl-amine]",74,43.7,1400
"Fc1cccc(Nc2[nH]nc3c2Cc2ccc(F)cc2-3)c1 [Compound 334, (7-Fluoro-2,4-dihydro-indeno[1,2-c]pyrazol-3-yl)-(3-fluoro-phenyl)-amine]",99.5,8.69,3300
